The molecule `COc1ccc(CN2C(=O)C3CC(c4ccc([N+](=O)[O-])cc4)(C3)C2=O)cc1` registered a melting point of 146 to 147 °C. The same measure for `CS(=O)(=O)c1ccc(-c2cnn(Cc3ccccc3)c(=O)c2-c2ccc(Cl)cc2)cc1`: 157 to 159 °C; for `COc1ccc(CNn2nnc3c(-c4ccco4)ncnc32)cc1`: 166 to 168 °C.

Consider `CC12CC(C)(C1)C(=O)N(C(C)(C)C)C2=O`, for which the melting point lay in the range of 65 to 65.5 °C. Consider `CC1CC(=O)c2cc([N+](=O)[O-])c(Br)cc2O1` (configuration not stated), for which the melting point lay within 125 to 128 °C. The same measure for `N#Cc1ccc([C@H]2CC[C@H](CO)CC2)cc1`: 108 °C. `c1cc(-c2cnn3cc(-c4ccc(OCCN5CCCCC5)cc4)cnc23)cs1`: the melting point is 141 to 143 °C. The same measure for `COCCC(=O)N[C@H]1CC[C@H](CCN2CCN(c3ncc(C)c4c3CCO4)CC2)CC1`: 164 °C; for `CC(=O)NC(C)C(=O)NCC(=O)O` (racemic): 79 to 82 °C; for `O=C(C[C@@H](O)C(=O)O)c1ccccc1`: 128 to 131 °C. Next, `Cc1cc(N2CCN(c3c(C)c(C)c4c(c3C)CC(C)(C)O4)CC2)n2nccc2n1`: 180 to 182 °C; `Cc1nnc2n1-c1sc(C#Cc3ccccn3)cc1C(c1ccccc1Cl)=NC2`: 153 to 155 °C; `CS(=O)(=O)Nc1ccc(NC(=O)C(=O)N2CCC(Cc3ccc(F)cc3)CC2)cc1`: 178 to 182 °C. The same measure for `Cc1ccc(C2=NC(O)(C(F)(F)F)CN2c2ccc(S(C)(=O)=O)cc2)cc1` (configuration not stated): 198 to 199 °C. Regarding `Cc1c(N)c(F)cc2c(=O)c(C(=O)O)cn(-c3cc(O)c(F)cc3F)c12`, the melting point is over 280 °C. The molecule `Cc1ccc2c(c1)CC(=O)N2c1c(F)cccc1Cl` registered a melting point of 137 to 140 °C. Next, `O=C(O)c1cccc(Cc2c(-c3ccc(OC(F)F)c(OC4CC4)c3)[nH]c3cn[nH]c(=O)c23)c1`: 155 to 163 °C; `CC1(C)OCC(CCBr)CO1`: 18 °C; `CN1CCN(Cc2ccc(C(=O)Nc3ccc(CO)c(Nc4nccc(-c5cccnc5)n4)c3)cc2)CC1`: 196 to 198 °C. The same measure for `CC(=O)c1sc(N2CCN(Cc3ccc(C(F)(F)F)cc3)C2=O)nc1C`: 141 to 142 °C; for `CC1(O)CC(=O)OC(CCc2ccc(O)cc2)C1` (configuration not stated): 135 to 137 °C. As for `CC(CC(=O)Nc1c(Cl)ccc2nc(N3CCC(NCCCO)C3)ccc12)c1ccccc1` (configuration not stated), the melting point was 155 to 158 °C. Turning to `CC(=O)c1ccc(NS(=O)(=O)N(C)C)cc1`, the melting point lay in the range of 129 to 130 °C.

For the molecule `NC(=N[N+](=O)[O-])NCCC[C@@H](NC(=O)C(c1ccccc1)c1ccccc1)C(=O)NCc1ccc(COC(=O)Oc2ccccc2)cc1`, the melting point was 186 to 187 °C. In turn, `CN(CCCl)C(=O)Nc1ccc([N+](=O)[O-])cc1C(F)(F)F` returned a melting point of 86 to 87 °C. On to `O=C(NCCNC(=O)C1CCN(c2c(Cl)cncc2Cl)CC1)c1ccccc1`, for which the melting point was 209 to 211 °C. With `C[C@@H]1N=C(c2ccccc2)c2cc([N+](=O)[O-])ccc2N(C)C1=O`, the melting point was 84 to 85 °C. In turn, `CCCc1c(COc2ccc(Cc3nnn(CCCS(C)(=O)=O)n3)cc2)ccc(C(C)=O)c1O` came in with a melting point of 89 to 91 °C.

Regarding `CCCCCC(=O)c1c[nH]c2c(OC)cccc2c1=O`, the melting point is 169 to 171 °C. Next, `CCCCc1ncc(CC(Cc2ccccc2)C(=O)O)n1Cc1ccccc1` (configuration not stated): 148 to 150 °C; `Cc1cc(C(O)(C(F)(F)F)C(F)(F)F)cc(C)c1OCCNCc1ccccc1`: 117 to 120 °C. Next, `CCOC(=O)c1c(C)cc2nc(CO)n(-c3ccc(OC)c(OC)c3)c(=O)c2c1C`: 181 to 182 °C; `Clc1ccccc1Oc1ccnc2c(Cl)cccc12`: 56 to 58 °C; `Cn1c(Cl)nc2cc(F)ccc21`: 138 to 141 °C. The same measure for `CCC1(C)CC(C#N)(NC(=O)Nc2ccccc2)C(C)C(C)(CC)N1` (configuration not stated): 167 to 170 °C.

For `CC(CN(C)C)Oc1ccc(/C=C/C(=O)O)cc1` (configuration not stated), the melting point was 235 °C. The same measure for `Nc1ccc(-c2ccccc2)cc1N`: 96 to 99 °C.

`CCCCC(=O)Nc1ccc(Cl)c(-n2nc(CC)n(Cc3ccc(-c4ccccc4S(=O)(=O)NC(=O)OC(C)(C)C)cc3F)c2=O)c1` showed a melting point of 143 to 145 °C.

Regarding `CNC(=S)Nc1ccccc1N1CCCC1`, the melting point is 125 to 126 °C. The same measure for `Oc1cccc(-c2nc(COc3ccc(CCCn4ccnc4)cc3)co2)c1`: 164 to 165 °C. For the molecule `Cc1cccc2c1nc(COc1ccc(Cl)cc1)n2CCC(C)CN1CCCC1` (racemic), the melting point is 85 to 87 °C. Next, `Cc1cccc(NC(=O)NN2CCN(CCc3c[nH]c4ccccc34)CC2)c1`: 186 to 188 °C; `CCOC(=O)Cc1c2cc(F)ccc2n2c(-c3ccc(SC)cc3)nccc12`: 59 to 62 °C; `Cc1ccccc1C(=O)N(c1ccccc1)c1ccc(OCCN(C)C)cc1`: 98.5 to 102 °C. The same measure for `COc1ccc(C(O)CNC(=O)C(N)=O)cc1OC1CCCC1` (configuration not stated): 180 to 181 °C; for `COC(=O)CCSc1c(C(N)=O)sc2ccc(OC)cc12`: 142 to 144 °C. The same measure for `Clc1cccc(Nc2ncnc(-c3ccnc(Cl)c3)n2)c1`: 178 to 180 °C. `CN(C)c1nc2cc(NC(=O)c3c(C(=O)N4CCC4)cnn3C)ccn2n1` showed a melting point of 240 to 241 °C. Next, `C=CC(=O)N1CCc2cc(OC)c(OC)cc2C12CCC(C(=O)OCC)(C(=O)OCC)CC2C1c2cc(OC)c(OC)cc2CCN1C(C)=O` (configuration not stated): 162 to 165 °C; `CC1(CC(CO)CO)SCCS1`: 72 to 73 °C; `C=CCOc1cc(NC(C)=O)c(Cl)cc1C(=O)OC`: 110 to 112 °C. Next, `COc1ccc(CCN2C=CC=C3C2=Nc2cc(OC)ccc2S(=O)(=O)N3C)cc1`: 65 to 68 °C. As to `COc1ccc(C2=NN(Cc3ccccc3)C(=O)[C@H]3CCCC[C@@H]23)cc1OC` (relative stereo), the melting point lay within 86 to 88 °C. Next, `COCCNC(=O)c1nc(C)c2cc(Cc3ccc(F)cc3)cnc2c1OCc1ccccc1`: 167 to 168 °C; `CSc1ccc(-n2cnc3ccc(-c4nnc(N)o4)cc32)cc1`: 254 to 255 °C; `CCS(=O)c1nc(-c2ccccc2)c(-c2ccccc2)o1` (configuration not stated): 133 to 134 °C. In turn, `CC(C)c1cccc(C(C)C)c1NC(=O)C(Br)c1ccccc1` (configuration not stated) returned a melting point of 207 to 210 °C. In turn, `CCOC(=O)C(=CNc1ccc(F)c(F)c1O)C(=O)OCC` returned a melting point of 178 to 180 °C. Next, `CC(c1oc2ccccc2c(=O)c1-c1cccc(F)c1)n1nc(-c2ccccc2CO)c2c(N)ncnc21` (configuration not stated): 185 to 189 °C; `COc1ccc(C2CCN(C(=O)CC(=O)O)CC2)cc1OC1CCCC1`: 122 to 123 °C; `CCC(CC)(CC(=O)Nc1cccc(/C=C/c2nc(C3CCCC3)cs2)c1)C(=O)O`: 172 to 174 °C. Next, `Cc1ccc(-n2c(-c3cc(-c4ccc(S(C)(=O)=O)cc4)c(N4CCOCC4)s3)nc3ccccc3c2=O)cc1`: 265 to 268 °C. In the case of `Cc1c(C)c(N2Cc3ccccc3C2)c(C)c2c1OC(C)(C)C2c1ccc(F)cc1` (configuration not stated), the melting point is 204 to 205 °C.

For the molecule `COC(=O)c1cc(OCc2ccccc2)ccc1O`, the melting point is 108 to 112 °C.

With `COc1cc(Cc2cnc(N)nc2N)c2c(c1OC)OC(C)C2` (configuration not stated), the melting point fell in the range of 216 to 219 °C. The same measure for `CCc1ccc(S(=O)(=O)NCc2ccccc2-c2ccccc2C(=O)NCCc2ccccc2)cc1`: 163 °C; for `Nc1nc2ccc(OCC(F)(F)C(F)(F)F)cc2s1`: 147 °C.

`Brc1cn2ccnc2c(N2CCOCC2)n1` displayed a melting point of 191 °C. `COC(=O)C1CC(=O)C(N=Nc2ccccc2)=C(O)C1` (configuration not stated) returned a melting point of 117 to 118 °C. The same measure for `O=C(CC(=O)c1ccc(C(F)(F)F)cc1[N+](=O)[O-])c1ccc([N+](=O)[O-])cc1`: 139 to 140 °C; for `CN(c1cccc2cc(-c3ncc(COCC(=O)O)s3)[nH]c12)S(=O)(=O)c1cccs1`: 197 to 198 °C. Molecule `O=C(Oc1ccccc1)c1cc2ccc3c4cc(F)ccc4[nH]c3c2cc1O` registered a melting point of 289 to 290 °C. `CC(Cl)=CCOc1ccc(C(=O)O)nc1` yielded a melting point of 96 to 98 °C. Molecule `CC(C)(Cn1c(N)nc2c(N)nc3ccccc3c21)NS(C)(=O)=O` had a melting point of over 230 °C. Next, `CC(C)(C)[Si](n1cc(Br)c2ncccc21)(C(C)(C)C)C(C)(C)C`: 79 to 80 °C; `O=C(Nc1nccs1)c1cnc2ccccc2c1O`: 349 to 350 °C. The same measure for `C[C@]1(COc2ccc3cc(N4CCC(Oc5ccc(OC(F)(F)F)cc5)CC4)ccc3c2)Cn2cc([N+](=O)[O-])nc2O1`: 205 to 208 °C; for `CCC1c2cccn2-c2ccc(F)cc2N1C(=O)c1ccc(OC)cc1OC` (configuration not stated): 131 to 132 °C; for `CC(C)(C)n1cc(C(=O)O)c(=O)c2cc(F)c(F)cc21`: over 260 °C. Next, `CCn1c(=O)n(OCc2ccccc2)c(=O)c2cc(F)c(N3CCC(NC(=O)OC(C)(C)C)C3)nc21` (configuration not stated): 157 to 159 °C; `CC(C)(C)OC(=O)N=C(NC(=O)OC(C)(C)C)N1CCC(n2ccc3ccccc32)CC1`: 115 to 118 °C; `OCCc1c(-c2ccccc2)nc(Cl)n2ncnc12`: 104 to 105 °C. Regarding `O=Cc1cc(Oc2c(Cl)cc(C(F)(F)F)cc2Cl)ccc1[N+](=O)[O-]`, the melting point is 115 °C. The same measure for `CSN(C=C(C#N)C#N)c1cccc(C(C)=O)c1`: 165 to 166 °C; for `COc1ccc2[nH]c(Sc3ccc(C=O)o3)nc2c1`: 94 to 99 °C. In turn, `O=C(CCCCCCCCCCC(=O)Oc1cc(O)cc(O)c1)Oc1cc(O)cc(O)c1` yielded a melting point of 140 to 145 °C. Molecule `CCCCCCCCCCCCc1ccc(C(=O)c2ccccc2C(=O)O)cc1` gave a melting point of 85 °C.

For orientation: melting point means the temperature, or range, at which the solid turns liquid.

For the origin of these results see a melting point compilation (Tetko et al.; mined from patent text by program, amines drawn as free bases though some values may be those of a salt).
